What was measured:
[1] = tested on: HCV replication, genotype 1a (Huh-7 HCV replicon cell); experiment: Replicon ELISA cell based assay, genotype 1a; settings: Hepatitis C virus, Huh-7 HCV replicon cells, 72 hours, mean, assayed at least twice
Procedure: (§1) Replicon ELISA Cell Based Assay
(§2) 100 μL of medium containing 10% FCS were added to each well of clear, flat-bottomed 96 well microplates, excepting wells in the top row. Test compound was diluted in assay medium to twice the final required starting concentration from a 40 mM stock solution in DMSO. 200 μL of the starting dilution were introduced into two wells each in the top row and doubling dilutions made down the plate by the sequential transfer of 100 μL aliquots with thorough mixing in the wells; the final 100 μL were discarded. The two bottom rows were not used for compound dilutions. Huh-7 HCV replicon cell monolayers nearing confluency were stripped from growth flasks with versene-trypsin solution and the cells were resuspended in assay medium at either 2×10^5 cells/mL (sub-line 5-15; genotype 1b; Lohmann, V., Korner, F., Koch, J-O., Herian, U., Thielmann, L. and Bartenschlager, R., Science, 1999, 285, 110-113) or at 3×10^5 cells/mL (genotype 1a; Gu, B., Gates, A. T., Isken, O., Behrens, S. E. and Sarisky, R. T., J. Virol., 2003, 77, 5352-5359). 100 μL of cell suspension were added to all wells and the plates incubated at 37° C. for 72 hours in a 5% CO2 atmosphere.
(§3) Following incubation, the assay medium was aspirated from the plates. The cell sheets were washed by gentle immersion in phosphate buffered saline (PBS), which was then aspirated off, and fixed with acetone:methanol (1:1) for 5 minutes. Following a further wash with PBS, 100 μL of ELISA diluent (PBS+0.05% v/v Tween 20+2% w/v skimmed milk powder) were added to all wells and the plates incubated at 37° C. for 30 minutes on an orbital platform. The diluent was removed and each well then received 50 μL of a 1/200 dilution of anti-HCV specific, murine, monoclonal antibody (either Virostat #1872 or #1877), except for wells in one of the compound-free control rows which received diluent alone to act as negative controls. The plates were incubated at 37° C. for 2 hours and washed 3 times with PBS/0.05% Tween 20, then 50 μL of horseradish peroxidase conjugated, anti-mouse, rabbit polyclonal serum (Dako #P0260), diluted 1/1000, were added to all wells. The plates were incubated for a further hour, the antibody removed and the cell sheets washed 5 times with PBS/Tween and blotted dry. The assay was developed by the addition of 50 μL of ortho-phenylenediamine/peroxidase substrate in urea/citrate buffer (SigmaFast, Sigma #P-9187) to each well, and colour allowed to develop for up to 15 minutes. The reaction was stopped by the addition of 25 μL per well of 2 M sulphuric acid and the plates were read at 490 nm on a Fluostar Optima spectrophotometer.
(§4) The substrate solution was removed and the plates were washed in tap water, blotted dry and the cells stained with 5% carbol fuchsin in water for 30 minutes. The stain was discarded and the cell sheets washed, dried and examined microscopically to assess cytotoxicity.
(§5) The absorbance values from all compound-free wells that had received both primary and secondary antibodies were averaged to obtain a positive control value. The mean absorbance value from the compound-free wells that had not received the primary antibody was used to provide the negative (background) control value. The readings from the duplicate wells at each compound concentration were averaged and, after the subtraction of the mean background from all values, were expressed as a percentage of the positive control signal. The quantifiable and specific reduction of expressed protein detected by the ELISA in the presence of a drug can be used as a measure of replicon inhibition. GraFit software (Erithacus Software Ltd.) was used to plot the curve of percentage inhibition against compound concentration and derive the 50% inhibitory concentration (IC50) for the compound.

[2] = tested on: HCV replication, genotype 1b (Huh-7 HCV replicon cell, sub-line 5-15); experiment: Replicon ELISA cell based assay, genotype 1b; settings: Hepatitis C virus, Huh-7 HCV replicon cells, genotype 1b (sub-line 5-15), 72 hours, mean, assayed at least twice
Procedure: as §1, §2, §3, §4, §5

SMILES	IC50 [1] [nM]	IC50 [2] [nM]
CC(C)N(c1cc(-c2ccc(Cl)cc2)sc1C(=O)O)C(=O)[C@H]1CC[C@H](C)CC1 [Compound B, 5-(4-Chlorophenyl)-3-[[(trans-4-methylcyclohexyl)carbonyl](1-methylethyl)amino]-2-thiophenecarboxylic acid, reference compound]	1000 to 5000	1000 to 5000
CC(C)N(c1cc(-c2ccc(-c3cc4ccc(N)cc4o3)cc2)sc1C(=O)O)C(=O)[C@H]1CC[C@H](C)CC1 [Example 30, 5-[4-(6-Amino-1-benzofuran-2-yl)phenyl]-3-[[(trans-4-methylcyclohexyl)carbonyl](1-methylethyl)amino]-2-thiophenecarboxylic acid]	100 to 500	500 to 1000
CC(C)N(c1cc(-c2ccc(-c3ccc4nc[nH]c4c3)cc2)sc1C(=O)O)C(=O)[C@H]1CC[C@H](C)CC1 [Example 28, 5-[4-(1H-Benzimidazol-5-yl)phenyl]-3-[[(trans-4-methylcyclohexyl)carbonyl](1-methylethyl)amino]-2-thiophenecarboxylic acid]	100 to 500	100 to 500
CC(C)N(c1cc(-c2ccc(-c3cc4ncccn4n3)nc2)sc1C(=O)O)C(=O)[C@H]1CC[C@H](C)CC1 [Example 34, 3-[[(trans-4-Methylcyclohexyl)carbonyl](1-methylethyl)amino]-5-(6-pyrazolo[1,5-a]pyrimidin-2-yl-3-pyridinyl)-2-thiophenecarboxylic acid]	10 to 50	50 to 100
CC(C)N(c1cc(-c2ccc(-c3cc4cnccc4o3)cc2)sc1C(=O)O)C(=O)[C@H]1CC[C@H](C)CC1 [Example 13, Sodium 5-(4-furo[3,2-c]pyridin-2-ylphenyl)-3-[[(trans-4-methylcyclohexyl)carbonyl](1-methylethyl)amino]-2-thiophenecarboxylate]	100 to 500	100 to 500
CC(C)N(c1cc(-c2ccc(-c3cn4ccsc4n3)nc2)sc1C(=O)O)C(=O)[C@H]1CC[C@H](C)CC1 [Example 32, 5-(6-Imidazo[2,1-b][1,3]thiazol-6-yl-3-pyridinyl)-3-[[(trans-4-methylcyclohexyl)carbonyl](1-methylethyl)amino]-2-thiophenecarboxylic acid]	100 to 500	50 to 100
CC(C)N(c1cc(-c2ccc(-c3cc4ncccn4n3)cc2)sc1C(=O)O)C(=O)[C@H]1CC[C@H](C)CC1 [Example 2, 3-[[(trans-4-Methylcyclohexyl)carbonyl](1-methylethyl)amino]-5-(4-pyrazolo[1,5-a]pyrimidin-2-ylphenyl)-2-thiophenecarboxylic acid]	10 to 50	10 to 50
CC(C)N(c1cc(-c2ccc(-c3cc4cccc(O)c4o3)cc2)sc1C(=O)O)C(=O)[C@H]1CC[C@H](C)CC1 [Example 19, 5-[4-(7-Hydroxy-1-benzofuran-2-yl)phenyl]-3-[[(trans-4-methylcyclohexyl)carbonyl](1-methylethyl)amino]-2-thiophenecarboxylic acid]	< 5	< 5

Source: patent publication US20090136448A1, “Antiviral 2-Carboxy-Thiophene Compounds” (priority 2005, published 2009)
